Data as given in ChEMBL document CHEMBL5055654, “Discovery of 5-methylpyrimidopyridone analogues as selective antimycobacterial agents” (Bioorg Med Chem, 2021).
Values after ≈ are worked out from the molar mass of the structure shown. Active and inactive are the calls of the source. The rule behind the calls is not given here.

Tests used:
Vero = test: Cytotoxicity against African green monkey Vero cells assessed as reduction in cell viability measured after 72 hrs by CCK8 assay; format: cell-based; conditions: Chlorocebus sabaeus
Salmonella = test: Antibacterial activity against Salmonella at 10 uM incubated for 16 hrs by microtiter reader analysis; format: functional, organism-based
Escherichia coli = test: Antibacterial activity against Escherichia coli at 10 uM incubated for 16 hrs by microtiter reader analysis; format: functional, organism-based
[1] = system: Mycobacterium tuberculosis; test: Antitubercular activity against Mycobacterium tuberculosis mc2 6230 assessed as inhibition of bacterial growth incubated for 7 days; format: functional; conditions: mc2 6230, 168 h, time 7 day
[2] = Binding affinity to Mycobacterium tuberculosis PknB

| Compound | MIC [1] [µM] | further results |
| --- | --- | --- |
| CCOc1cc(Nc2ncc3c(C)c(-c4ccccc4Cl)c(=O)n(C45CC6CC(CC(C6)C4)C5)c3n2)ccc1N1CCN(C)CC1 | 8 (≈ 5.11 µg/mL) | IC50 (Vero): 4.4 µM; Activity (Salmonella): inactive; Activity (Escherichia coli): inactive |
| Cc1ccccc1-c1c(C)c2cnc(Nc3ccc(N4CCC(N(C)C)CC4)c(C)c3)nc2n(C23CC4CC(CC(C4)C2)C3)c1=O | 8 (≈ 4.93 µg/mL) | – |
| Cc1c(-c2ccccc2Cl)c(=O)n(C23CC4CC(CC(C4)C2)C3)c2nc(N3CCC(C)CC3)ncc12 | > 512 | – |
| Cc1c(-c2ccccc2Cl)c(=O)n(C23CC4CC(CC(C4)C2)C3)c2nc(N3CCN(CCO)CC3)ncc12 | 64 (≈ 34.2 µg/mL) | – |
| Cc1c(-c2ccccc2Cl)c(=O)n(C23CC4CC(CC(C4)C2)C3)c2nc(Nc3ccc(N4CCN(C)CC4)cc3)ncc12 | 512 (≈ 305 µg/mL) | – |
| Cc1c(-c2ccccc2Cl)c(=O)n(C23CC4CC(CC(C4)C2)C3)c2nc(N3CCN(C)CC3)ncc12 | > 512 | – |
| Cc1cc(Nc2ncc3c(C)c(-c4ccccc4Cl)c(=O)n(C4CCCCC4)c3n2)ccc1N1CCC(N(C)C)CC1 | 32 (≈ 18.7 µg/mL) | – |
| Cc1c(-c2ccccc2Cl)c(=O)n(C23CC4CC(CC(C4)C2)C3)c2nc(N3CC(OC(C)C)C3)ncc12 | > 512 | – |
| Cc1cc(Nc2ncc3c(C)c(-c4ccccc4C#N)c(=O)n(C45CC6CC(CC(C6)C4)C5)c3n2)ccc1N1CCC(N(C)C)CC1 | 16 (≈ 10 µg/mL) | – |
| Cc1cc(Nc2ncc3c(C)c(-c4ccccc4Cl)c(=O)n(C45CC6CC(CC(C6)C4)C5)c3n2)ccc1N1CCN(C)CC1 | 8 (≈ 4.87 µg/mL) | IC50 (Vero): 4.8 µM; Activity (Salmonella): inactive; Activity (Escherichia coli): inactive |
| CCC(C)Nc1ncc2c(C)c(-c3ccccc3Cl)c(=O)n(C34CC5CC(CC(C5)C3)C4)c2n1 (stereo not given) | 512 (≈ 244 µg/mL) | – |
| CCNc1ncc2c(C)c(-c3ccccc3Cl)c(=O)n(C34CC5CC(CC(C5)C3)C4)c2n1 | 256 (≈ 115 µg/mL) | – |
| Cc1cc(Nc2ncc3c(C)c(-c4ccccc4F)c(=O)n(C45CC6CC(CC(C6)C4)C5)c3n2)ccc1N1CCC(N(C)C)CC1 | 32 (≈ 19.9 µg/mL) | – |
| Cc1c(-c2ccccc2Cl)c(=O)n(C23CC4CC(CC(C4)C2)C3)c2nc(NCCO)ncc12 | > 512 | – |
| Cc1cc(Nc2ncc3c(C)c(-c4ccccc4Cl)c(=O)n(C45CC6CC(CC(C6)C4)C5)c3n2)ccc1N1CCN(CCO)CC1 | 32 (≈ 20.5 µg/mL) | – |
| Cc1c(-c2ccccc2Cl)c(=O)n(C23CC4CC(CC(C4)C2)C3)c2nc(N3CCC(N4CCOCC4)CC3)ncc12 | > 512 | – |
| Cc1c(-c2ccccc2Cl)c(=O)n(C23CC4CC(CC(C4)C2)C3)c2nc(N3CCC(O)CC3)ncc12 | > 512 | – |
| Cc1cc(Nc2ncc3c(C)c(-c4cccc(Cl)c4)c(=O)n(C45CC6CC(CC(C6)C4)C5)c3n2)ccc1N1CCC(N(C)C)CC1 | > 512 | – |
| Cc1c(-c2ccccc2Cl)c(=O)n(C23CC4CC(CC(C4)C2)C3)c2nc(NC3CCCCC3)ncc12 | 512 (≈ 258 µg/mL) | – |

| Compound | MIC [1] [µM] | further results |
| --- | --- | --- |
| COc1cc(Nc2ncc3c(C)c(-c4ccccc4Cl)c(=O)n(C45CC6CC(CC(C6)C4)C5)c3n2)ccc1N1CCN(C)CC1 | 8 (≈ 5 µg/mL) | Kd [2]: 0.75 µM |
| Cc1cc(Nc2ncc3c(C)c(-c4ccc(Cl)cc4)c(=O)n(C45CC6CC(CC(C6)C4)C5)c3n2)ccc1N1CCC(N(C)C)CC1 | > 512 | – |
| Cc1cc(Nc2ncc3c(C)c(-c4ccccc4)c(=O)n(C45CC6CC(CC(C6)C4)C5)c3n2)ccc1N1CCC(N(C)C)CC1 | 16 (≈ 9.65 µg/mL) | – |
| COCCNc1ncc2c(C)c(-c3ccccc3Cl)c(=O)n(C34CC5CC(CC(C5)C3)C4)c2n1 | > 512 | – |
| Cc1c(-c2ccccc2Cl)c(=O)n(C23CC4CC(CC(C4)C2)C3)c2nc(N3CCC(N(C)C)CC3)ncc12 | 16 (≈ 8.51 µg/mL) | – |
| Cc1cc(Nc2ncc3c(C)c(-c4ccccc4Cl)c(=O)n(C45CC6CC(CC(C6)C4)C5)c3n2)ccc1N1CCC(N(C)C)CC1 | 4 (≈ 2.55 µg/mL) | IC50 (Vero): 2.9 µM; Activity (Salmonella): inactive; Activity (Escherichia coli): inactive |
| NNC(=O)c1ccncc1 [ISONIAZID] | 0.2 (≈ 0.0274 µg/mL) | – |
| Cc1c(-c2ccccc2Cl)c(=O)n(C23CC4CC(CC(C4)C2)C3)c2nc(NC(C)C)ncc12 | 256 (≈ 119 µg/mL) | – |
| Cc1c(-c2ccccc2Cl)c(=O)n(C23CC4CC(CC(C4)C2)C3)c2nc(NC[C@H]3CCCO3)ncc12 | > 512 | – |
| Cc1cc(Nc2ncc3c(C)c(-c4ccccc4Cl)c(=O)n(C4CCCC4)c3n2)ccc1N1CCC(N(C)C)CC1 | 32 (≈ 18.3 µg/mL) | – |
| CCCCNc1ncc2c(C)c(-c3ccccc3Cl)c(=O)n(C34CC5CC(CC(C5)C3)C4)c2n1 | 512 (≈ 244 µg/mL) | – |
| Cc1c(-c2ccccc2Cl)c(=O)n(C23CC4CC(CC(C4)C2)C3)c2nc(NC3CCCC3)ncc12 | 265 (≈ 130 µg/mL) | – |
| Cc1c(-c2ccccc2Cl)c(=O)n(C23CC4CC(CC(C4)C2)C3)c2nc(Nc3ccc(N4CCN(C)CC4)c(OC(C)C)c3)ncc12 | 8 (≈ 5.23 µg/mL) | IC50 (Vero): 4.6 µM; Activity (Salmonella): inactive; Activity (Escherichia coli): inactive |
| COc1nc2ccc(Br)cc2cc1[C@@H](c1ccccc1)[C@@](O)(CCN(C)C)c1cccc2ccccc12 [BEDAQUILINE] | 0.02 (≈ 0.0111 µg/mL) | – |
| Cc1c(-c2ccccc2Cl)c(=O)n(C23CC4CC(CC(C4)C2)C3)c2nc(N(C)CCO)ncc12 | > 512 | – |
| Cc1c(-c2ccccc2Cl)c(=O)n(C23CC4CC(CC(C4)C2)C3)c2nc(NC3CC3)ncc12 | 265 (≈ 122 µg/mL) | – |
| Cc1cc(Nc2ncc3c(C)c(-c4ccccc4Cl)c(=O)n(C45CC6CC(CC(C6)C4)C5)c3n2)ccc1N1CCC(C)CC1 | > 512 | – |
| COc1ccccc1-c1c(C)c2cnc(Nc3ccc(N4CCC(N(C)C)CC4)c(C)c3)nc2n(C23CC4CC(CC(C4)C2)C3)c1=O | 16 (≈ 10.1 µg/mL) | – |
